Source: PMC5399447, “Neuroprotective pentapeptide CN-105 is associated with reduced sterile inflammation and improved functional outcomes in a traumatic brain injury murine model” (Scientific Reports, 2017)

Test system: 84 genes related to inflammatory and autoimmune processes
Assay: Mouse Inflammatory Response and Autoimmunity PCR Array, whole brain
Type: in vivo
Method: Frozen, pulverized whole brain tissue was processed for RNA extraction from a separate cohort of treated and untreated injured animals on days 1 post-injury(CN-105, n = 4; vehicle, n = 3; Control(sham-operated), n = 3). Total RNA was extracted from frozen, pulverized whole brain tissue using RNeasy Lipid Tissue Mini Kit(Qiagen, Valencia, CA). RNA quantity and quality was assessed with the NanoDrop ND-1000 spectrophotometer(NanoDrop Technologies, Inc., Wilmington, DE) and by agarose gel electrophoresis. Only samples with a 260/280 ratio between 1.9–2.1, and a 260/230 ratio greater than 2.0, were further processed. First strand complementary DNA(cDNA) was generated from 2 μg total RNA using the RT[2] First strand kit(SABiosciences, Frederick, MD.)
Gene expression was measured using the Mouse Inflammatory Response and Autoimmunity PCR Array(SABiosciences, Frederick, MD), which profiles the expression of 84 genes related to inflammatory and autoimmune processes. RT-PCR was performed according to manufacturer’s instructions Quality of the cDNA and PCR efficiency was verified by housekeeping genes and RT-PCR controls included in the PCR Array.
Raw RT-PCR data were analyzed using the Web-Based PCR Array Data Analysis software(SABiosciences). ΔCt values and ΔΔCt - based fold-change were calculated from raw threshold cycle data, using beta-actin and glyceraldehyde 3-phosphate dehydrogenase(GAPDH) as internal standards for normalization. Fold changes were then normalized against sham-operated controls.

[1] = TBI CN-105 vs TBI vehicle, brain 24 h post TBI
[2] = TBI CN-105 vs sham vehicle, brain 24 h

## Ac-VSRRR-amide [CN-105]
[1]
  Ccl24 Fold Change: −14.8
  Ccl25 Fold Change: −1.2
  Ccr1 Fold Change: 2.3
  Ccr2 Fold Change: −48.3
  Ccr3 Fold Change: 5.4
  Ccr4 Fold Change: 1.2
  Ccr7 Fold Change: 1.2
  Cd40 Fold Change: −7.8
  Cd40lg Fold Change: −1.2
  Cebpb Fold Change: −1.5
  Crp Fold Change: 1.2
  Csf1 Fold Change: −2.0
  Cxcl1 Fold Change: −8.3
  Cxcl2 Fold Change: 4.8
  Cxcl3 Fold Change: 2.4
  Cxcl5 Fold Change: 6257
  Cxcl9 Fold Change: −70.3
  Cxcl10 Fold Change: −47.9
  Cxcl11 Fold Change: 2.6
  Cxcr4 Fold Change: −7.3
  Fasl Fold Change: −2.0
  Flt3l Fold Change: −1.4
  Fos Fold Change: −1.2
  Hdac4 Fold Change: −1.1
  Ifng Fold Change: −12.9
  Il1a Fold Change: −10.1
  Il1b Fold Change: −1.6
  Il1f10 Fold Change: 3.8
  Il1r1 Fold Change: 3.5
  Il1rap Fold Change: −2.2
  Il1rn Fold Change: −1.6
  Il6 Fold Change: −29.8
  Il6ra Fold Change: −2.9
  Il7 Fold Change: 515
  Il8ra Fold Change: 1.2
  Il8rb Fold Change: 1.1
  Il9 Fold Change: 1.2
  Il10 Fold Change: −9.3
  Il10rb Fold Change: 2.6
  Il18 Fold Change: 7.2
  Il18rap Fold Change: −3.6
  Il22 Fold Change: −1.7
  Il22ra2 Fold Change: 10895
  Il23a Fold Change: 18.5
  Il23r Fold Change: 5.8
  Itgb2 Fold Change: −1.5
  Kng1 Fold Change: −1.1
  Lta Fold Change: −1.2
  Ltb Fold Change: 3.6
  Ly96 Fold Change: 61.2
  Myd88 Fold Change: −273
  Nfatc3 Fold Change: 10044
  Nfkb1 Fold Change: −16.6
  Nr3c1 Fold Change: 13.7
  Ripk2 Fold Change: −1.1
  Tirap Fold Change: −1.5
  Tlr1 Fold Change: −1.4
  Tlr2 Fold Change: 1.0
  Tlr3 Fold Change: 1.3
  Tlr4 Fold Change: −9.0
  Tlr5 Fold Change: 2.5
  Tlr6 Fold Change: −170
  Tlr7 Fold Change: 19.0
  Tnf Fold Change: 6.9
  Tnfsf14 Fold Change: −2.8
  Tollip Fold Change: −2.9
[2]
  Bcl6 fold change TBI-CN-105/S-v: 11.2
  C3ar1 fold change TBI-CN-105/S-v: 34.9
  C3 fold change TBI-CN-105/S-v: 4.6
  C4b fold change TBI-CN-105/S-v: 163.3
  Ccl2 fold change TBI-CN-105/S-v: 42.3
  Ccl3 fold change TBI-CN-105/S-v: 17.7
  Ccl4 fold change TBI-CN-105/S-v: 32.3
  Ccl5 fold change TBI-CN-105/S-v: 3.8
  Ccl7 fold change TBI-CN-105/S-v: 2.9
  Ccl8 fold change TBI-CN-105/S-v: 5.6
  Ccl11 fold change TBI-CN-105/S-v: 2253.1
  Ccl12 fold change TBI-CN-105/S-v: 3.7
  Ccl17 fold change TBI-CN-105/S-v: −2.6
  Ccl19 fold change TBI-CN-105/S-v: −5.8
  Ccl20 fold change TBI-CN-105/S-v: 3086.8
  Ccl22 fold change TBI-CN-105/S-v: 176.2
  Ccl24 fold change TBI-CN-105/S-v: 159.1
  Ccl25 fold change TBI-CN-105/S-v: 16.9
  Ccr1 fold change TBI-CN-105/S-v: −2.5
  Ccr2 fold change TBI-CN-105/S-v: 5.6
  Ccr3 fold change TBI-CN-105/S-v: 66.6
  Ccr4 fold change TBI-CN-105/S-v: 7945.9
  Ccr7 fold change TBI-CN-105/S-v: 283.2
  Cd40 fold change TBI-CN-105/S-v: 38.8
  Cebpb fold change TBI-CN-105/S-v: 3.5
  Csf1 fold change TBI-CN-105/S-v: 1.1
  Cxcl1 fold change TBI-CN-105/S-v: 29.4
  Cxcl2 fold change TBI-CN-105/S-v: 25.5
  Cxcl3 fold change TBI-CN-105/S-v: 54032.0
  Cxcl5 fold change TBI-CN-105/S-v: 957.4
  Cxcl9 fold change TBI-CN-105/S-v: 32.2
  Cxcl10 fold change TBI-CN-105/S-v: −1.7
  Cxcl11 fold change TBI-CN-105/S-v: 372.3
  Cxcr4 fold change TBI-CN-105/S-v: 21.0
  Fasl fold change TBI-CN-105/S-v: 3.2
  Flt3l fold change TBI-CN-105/S-v: −2.8
